Patent publication US6737383B1, “Herbicidal oxadiazolidines” (priority 1999, dated 2004)

Key:
morningglory = assay: Test B pre/postemergence morningglory; format: in vivo, Ipomoea hederacea
Method in brief: (§1)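 Response is a visual 0-to-10 score relative to untreated plants, where 0 means no effect and 10 means complete control, taken twelve to sixteen days after application. Treatments went onto soil at planting and onto foliage of 1- to 4-leaf plants, using a surfactant-containing non-phytotoxic solvent.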

blackgrass = assay: Test B pre/postemergence blackgrass; format: in vivo, Alopecurus myosuroides
Method in brief: as §1

purple nutsedge = assay: Test B pre/postemergence purple nutsedge; format: in vivo, Cyperus rotundus
Method in brief: as §1

giant foxtail = assay: Test B pre/postemergence giant foxtail; format: in vivo, Setaria faberii
Method in brief: as §1

pigweed = assay: Test B pre/postemergence pigweed; format: in vivo, Amaranthus retroflexus
Method in brief: as §1

wheat = assay: Test B pre/postemergence wheat; format: in vivo, Triticum aestivum
Method in brief: as §1

soybean = assay: Test B pre/postemergence soybean; format: in vivo, Glycine max
Method in brief: as §1

sugar beet = assay: Test B pre/postemergence sugar beet; format: in vivo, Beta vulgaris
Method in brief: as §1

surinam grass = assay: Test B pre/postemergence surinam grass; format: in vivo, Brachiaria decumbens
Method in brief: as §1

rape = assay: Test B pre/postemergence rape; format: in vivo, Brassica napus
Method in brief: as §1

velvetleaf = assay: Test B pre/postemergence velvetleaf; format: in vivo, Abutilon theophrasti
Method in brief: as §1

cocklebur = assay: Test B pre/postemergence cocklebur; format: in vivo, Xanthium strumarium
Method in brief: as §1

corn = assay: Test B pre/postemergence corn; format: in vivo, Zea mays
Method in brief: as §1

bedstraw = assay: Test B pre/postemergence bedstraw; format: in vivo, Galium aparine
Method in brief: as §1

wild oat = assay: Test B pre/postemergence wild oat; format: in vivo, Avena fatua
Method in brief: as §1

crabgrass = assay: Test B pre/postemergence crabgrass; format: in vivo, Digitaria sanguinalis
Method in brief: as §1

[1] = Postemergence, Rate 62 g/ha, scale 0 to 10, 0 is no effect, 10 is complete control
[2] = Postemergence, Rate 125 g/ha, scale of 0 to 10 where 0 is no effect and 10 is complete control
[3] = Postemergence, Rate 500 g/ha, scale 0 (no effect) to 10 (complete control)
[4] = Rate 62 g/ha, Preemergence, scale 0 to 10
[5] = Rate 125 g/ha, Preemergence, scale 0 to 10 (0 no effect, 10 complete control)
[6] = Rate 250 g/ha, Postemergence, scale 0 to 10, 0 is no effect, 10 is complete control
[7] = Rate 500 g/ha, Preemergence, scale 0 to 10 (0 no effect, 10 complete control)
[8] = Preemergence, Rate 250 g/ha, scale 0 (no effect) to 10 (complete control)

CC(C)N(C(=O)n1oc(=O)n(CCCCCl)c1=O)c1ccccc1 [Compound 792]
Plant response rating, Morningglory (morningglory; [1]): 6 | Morningglory plant response rating (morningglory; [2]): 7 | Morningglory plant response rating (morningglory; [3]): 10 | Morningglory plant response rating (morningglory; [4]): 0 | Morningglory plant response rating (morningglory; [5]): 0 | Morningglory plant response rating (morningglory; [6]): 10 | Morningglory plant response rating (morningglory; [7]): 0 | Plant response rating, Blackgrass (blackgrass; [1]): 4 | Blackgrass plant response rating (blackgrass; [2]): 7 | Blackgrass plant response rating (blackgrass; [3]): 7 | Blackgrass plant response rating (blackgrass; [8]): 8 | Blackgrass plant response rating (blackgrass; [4]): 1 | Blackgrass plant response rating (blackgrass; [5]): 4 | Plant response rating, Nutsedge (purple nutsedge; [1]): 0 | Nutsedge plant response rating (purple nutsedge; [2]): 0 | Nutsedge plant response rating (purple nutsedge; [3]): 0 | Nutsedge plant response rating (purple nutsedge; [4]): 0 | Nutsedge plant response rating (purple nutsedge; [5]): 0 | Nutsedge plant response rating (purple nutsedge; [6]): 0 | Nutsedge plant response rating (purple nutsedge; [7]): 0 | Plant response rating, Giant foxtail (giant foxtail; [1]): 2 | Giant foxtail plant response rating (giant foxtail; [2]): 9 | Giant foxtail plant response rating (giant foxtail; [3]): 9 | Giant foxtail plant response rating (giant foxtail; [8]): 10 | Giant foxtail plant response rating (giant foxtail; [4]): 10 | Giant foxtail plant response rating (giant foxtail; [5]): 10 | Giant foxtail plant response rating (giant foxtail; [6]): 9 | Giant foxtail plant response rating (giant foxtail; [7]): 10 | Plant response rating, Redroot pigweed (pigweed; [1]): 0 | Redroot pigweed plant response rating (pigweed; [2]): 6 | Redroot pigweed plant response rating (pigweed; [4]): 7 | Redroot pigweed plant response rating (pigweed; [5]): 9 | Redroot pigweed plant response rating (pigweed; [6]): 6 | Plant response rating, Wheat (wheat; [1]): 0 | Wheat plant response rating (wheat; [3]): 3 | Wheat plant response rating (wheat; [4]): 0 | Wheat plant response rating (wheat; [5]): 0 | Wheat plant response rating (wheat; [6]): 1 | Plant response rating, Soybean (soybean; [1]): 4 | Soybean plant response rating (soybean; [3]): 7 | Soybean plant response rating (soybean; [4]): 0 | Soybean plant response rating (soybean; [5]): 0 | Soybean plant response rating (soybean; [6]): 5 | Soybean plant response rating (soybean; [7]): 0 | Plant response rating, Sugarbeets (sugar beet; [1]): 0 | Sugarbeets plant response rating (sugar beet; [3]): 2 | Sugarbeets plant response rating (sugar beet; [4]): 0 | Sugarbeets plant response rating (sugar beet; [5]): 3 | Sugarbeets plant response rating (sugar beet; [6]): 2 | Plant response rating, B. signalgrass (surinam grass; [1]): 0 | B. signalgrass plant response rating (surinam grass; [2]): 0 | B. signalgrass plant response rating (surinam grass; [8]): 9 | B. signalgrass plant response rating (surinam grass; Rate 62 g/ha, Preemergence, scale 0 (no effect) to 10 (complete control)): 0 | B. signalgrass plant response rating (surinam grass; [5]): 0 | B. signalgrass plant response rating (surinam grass; [6]): 0 | B. signalgrass plant response rating (surinam grass; Rate 500 g/ha, Postemergence, scale 0 to 10, 0 is no effect, 10 is complete control): 2 | Plant response rating, Rape (rape; [1]): 3 | Rape plant response rating (rape; [2]): 3 | Rape plant response rating (rape; [3]): 7 | Rape plant response rating (rape; [4]): 0 | Rape plant response rating (rape; [5]): 0 | Rape plant response rating (rape; [6]): 7 | Plant response rating, Velvetleaf (velvetleaf; [1]): 0 | Velvetleaf plant response rating (velvetleaf; [3]): 7 | Velvetleaf plant response rating (velvetleaf; [4]): 0 | Velvetleaf plant response rating (velvetleaf; [5]): 3 | Velvetleaf plant response rating (velvetleaf; [6]): 6 | Velvetleaf plant response rating (velvetleaf; [7]): 5 | Plant response rating, Cocklebur (cocklebur; [1]): 0 | Cocklebur plant response rating (cocklebur; [2]): 1 | Cocklebur plant response rating (cocklebur; [3]): 3 | Cocklebur plant response rating (cocklebur; [8]): 0 | Cocklebur plant response rating (cocklebur; [4]): 0 | Cocklebur plant response rating (cocklebur; [6]): 3 | Cocklebur plant response rating (cocklebur; [7]): 0 | Plant response rating, Corn (corn; [1]): 0 | Corn plant response rating (corn; [2]): 1 | Corn plant response rating (corn; [3]): 3 | Corn plant response rating (corn; [8]): 4 | Corn plant response rating (corn; [4]): 0 | Corn plant response rating (corn; [5]): 2 | Corn plant response rating (corn; [6]): 2 | Corn plant response rating (corn; [7]): 4 | Bedstraw plant response rating (bedstraw; [2]): 7 | Bedstraw plant response rating (bedstraw; [8]): 4 | Bedstraw plant response rating (bedstraw; [4]): 0 | Bedstraw plant response rating (bedstraw; [5]): 0 | Plant response rating, Wild oats (wild oat; [1]): 0 | Wild oats plant response rating (wild oat; [3]): 6 | Wild oats plant response rating (wild oat; [4]): 0 | Wild oats plant response rating (wild oat; [5]): 0 | Wild oats plant response rating (wild oat; [6]): 2 | Plant response rating, Crabgrass (crabgrass; [1]): 2 | Crabgrass plant response rating (crabgrass; [2]): 9 | Crabgrass plant response rating (crabgrass; [3]): 9 | Crabgrass plant response rating (crabgrass; [8]): 10 | Crabgrass plant response rating (crabgrass; [4]): 10 | Crabgrass plant response rating (crabgrass; [5]): 10 | Crabgrass plant response rating (crabgrass; [7]): 10
